Test results published in PubChem BioAssay AID330 (DTP/NCI, 2004).
Where “and” joins values, the source holds several entries; their conditions need not be identical. Equal values may be shown once. Toxic doses and inconclusive results are not listed. How the source made its calls: active means survival T/C of 150% or more; inactive means T/C below 125% in these data.

Tested on: P388 leukemia ip, CD2F1 mice, survival T/C
Test: NCI In Vivo Anticancer Drug Screen. Data for tumor model P388 Leukemia (intraperitoneal) in CD2F1 (CDF1) mice
Conditions: endpoint: median survival time, higher = longer survival
How it was run: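 Mice carrying the transplanted tumor received test compound or vehicle. Survival was recorded in each group, and the value is the treated-group measurement divided by that of the vehicle-treated control group.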

[1] = dose: 25.0 mg/kg/injection, schedule: Q01DX009 (ip), vehicle: saline with Tween-80
[2] = dose: 50.0 mg/kg/injection, schedule: Q01DX009 (ip), vehicle: saline with Tween-80
[3] = dose: 50.0 mg/kg/injection, schedule: Q01DX009 (ip), vehicle: saline
[4] = dose: 100.0 mg/kg/injection, schedule: Q01DX009 (ip), vehicle: saline with Tween-80
[5] = dose: 200.0 mg/kg/injection, schedule: Q01DX009 (ip), vehicle: saline with Tween-80
[6] = dose: 15.0 mg/kg/injection, schedule: Q01DX005 (ip), vehicle: saline with Tween-80
[7] = dose: 30.0 mg/kg/injection, schedule: Q01DX005 (ip), vehicle: saline with Tween-80

Measured: T/C

O=[N+]([O-])c1ccc(/C=C(/c2ccc([N+](=O)[O-])o2)S(=O)(=O)c2ccccc2)cc1
inactive: dose: 50.0 mg/kg/injection, schedule: Q01DX009 (ip), vehicle: suspension in saline 97 % of control | dose: 100.0 mg/kg/injection, schedule: Q01DX009 (ip), vehicle: suspension in saline 103 % of control | dose: 200.0 mg/kg/injection, schedule: Q01DX009 (ip), vehicle: suspension in saline 97 % of control

N#CC1(OC2OC(CO)C(O)C(O)C2O)C=CCC1 (stereo not drawn)
inactive: dose: 25.0 mg/kg/injection, schedule: Q01DX005 (ip), vehicle: saline 101 % of control | dose: 50.0 mg/kg/injection, schedule: Q01DX005 (ip), vehicle: saline 103 % of control | dose: 100.0 mg/kg/injection, schedule: Q01DX005 (ip), vehicle: saline 98 % of control | dose: 200.0 mg/kg/injection, schedule: Q01DX005 (ip), vehicle: saline 96 % of control

COc1cccc2c1OC(=O)NC2O (stereo not drawn)
inactive: dose: 25.0 mg/kg/injection, schedule: Q01DX005 (ip), vehicle: distilled water + Tween-80 103 % of control | dose: 50.0 mg/kg/injection, schedule: Q01DX005 (ip), vehicle: distilled water + Tween-80 107 % of control | dose: 50.0 mg/kg/injection, schedule: Q01DX005 (ip), vehicle: saline with Tween-80 102 % of control | dose: 100.0 mg/kg/injection, schedule: Q01DX005 (ip), vehicle: distilled water + Tween-80 121 % of control | dose: 100.0 mg/kg/injection, schedule: Q01DX005 (ip), vehicle: saline with Tween-80 122 % of control | dose: 200.0 mg/kg/injection, schedule: Q01DX005 (ip), vehicle: distilled water + Tween-80 110 % of control | dose: 200.0 mg/kg/injection, schedule: Q01DX005 (ip), vehicle: saline with Tween-80 112 % of control

O=C1OCc2nc3ccccc3cc21
inactive: dose: 50.0 mg/kg/injection, schedule: Q04DX003 (ip), vehicle: Klucel (hydroxypropylcellulose) (HPC) 100 % of control | dose: 100.0 mg/kg/injection, schedule: Q04DX003 (ip), vehicle: Klucel (hydroxypropylcellulose) (HPC) 98 % of control | dose: 200.0 mg/kg/injection, schedule: Q04DX003 (ip), vehicle: Klucel (hydroxypropylcellulose) (HPC) 106 % of control

N=C(N)S(=O)O
inactive: [1] 99 % of control | [2] 100 % of control | [3] 96 % of control | [4] 98 % of control | [5] 101 % of control | dose: 200.0 mg/kg/injection, schedule: Q01DX009 (ip), vehicle: saline 95 % of control

Oc1ccc(Cl)cc1CN1CCN(Cc2cc(Cl)ccc2O)CC1
inactive: [6] 100 % of control | [7] 97 % of control | dose: 60.0 mg/kg/injection, schedule: Q01DX005 (ip), vehicle: saline with Tween-80 89 % of control

O=C1CCCN1
inactive: dose: 100.0 mg/kg/injection, schedule: Q04DX003 (ip), vehicle: saline 100 % of control | dose: 200.0 mg/kg/injection, schedule: Q04DX003 (ip), vehicle: saline 100 % of control | dose: 400.0 mg/kg/injection, schedule: Q04DX003 (ip), vehicle: saline 109 % of control

CN1C(=O)Cc2ccccc2C1=O
inactive: dose: 12.5 mg/kg/injection, schedule: Q01DX009 (ip), vehicle: saline 103 % of control | dose: 25.0 mg/kg/injection, schedule: Q01DX009 (ip), vehicle: saline 101 % of control | [3] 119 % of control | dose: 100.0 mg/kg/injection, schedule: Q01DX009 (ip), vehicle: saline 103 % of control

O=S(=O)(O)c1ccc2nccn2c1
inactive: dose: 100.0 mg/kg/injection, schedule: Q01DX001 (ip), vehicle: suspension in saline 100 % of control | dose: 200.0 mg/kg/injection, schedule: Q01DX001 (ip), vehicle: suspension in saline 89 % of control | dose: 400.0 mg/kg/injection, schedule: Q01DX001 (ip), vehicle: suspension in saline 100 % of control

O=C1c2ccccc2C(=O)c2c1oc1c2ccc2ccccc21
inactive: dose: 12.5 mg/kg/injection, schedule: Q01DX009 (ip), vehicle: saline with Tween-80 98 % of control | [1] 92 % of control | [2] 99 % of control | [4] 87 % of control

CCOC(=O)C(Cc1ccccc1[N+](=O)[O-])(NC(C)=O)C(=O)OCC
inactive: [2] 94 % of control | [4] 93 % of control | [5] 100 % of control | dose: 400.0 mg/kg/injection, schedule: Q01DX009 (ip), vehicle: saline with Tween-80 103 % of control

NC(=O)N/N=C1/CCCCCC1(c1ccccc1)c1ccccc1
inactive: dose: 30.0 mg/kg/injection, schedule: Q01DX005 (ip), vehicle: Klucel (hydroxypropylcellulose) (HPC) 95 % of control | dose: 60.0 mg/kg/injection, schedule: Q01DX005 (ip), vehicle: Klucel (hydroxypropylcellulose) (HPC) 89 % of control | dose: 120.0 mg/kg/injection, schedule: Q01DX005 (ip), vehicle: Klucel (hydroxypropylcellulose) (HPC) 91 % of control

NC(CCl)=NCC1C2CC3CC(C2)CC1C3 (stereo not drawn)
inactive: dose: 7.5 mg/kg/injection, schedule: Q01DX005 (ip), vehicle: saline with Tween-80 107 % of control and 116 % of control and 120 % of control | [6] 122 % of control | [7] 117 % of control

O=c1cc(C(F)(F)F)c2cc3c4c(c2o1)CCCN4CCC3
inactive: dose: 50.0 mg/kg/injection, schedule: Q01DX005 (ip), vehicle: Klucel (hydroxypropylcellulose) (HPC) 106 % of control | dose: 100.0 mg/kg/injection, schedule: Q01DX005 (ip), vehicle: Klucel (hydroxypropylcellulose) (HPC) 100 % of control | dose: 200.0 mg/kg/injection, schedule: Q01DX005 (ip), vehicle: Klucel (hydroxypropylcellulose) (HPC) 99 % of control
